Results as given in BindingDB's records for doi:10.1016/j.bmcl.2009.03.008 (Roche R & D Center(China), 2009).
pEC50, pIC50: −log10 of the molar value.

These compounds were tested against T1, Bile acid receptor (Homo sapiens, UniProt Q96RI1) (assay: Scintillation Proximity Assay). Conditions: pH 8; 22 °C.
T1 sequence (Q96RI1 whole entry): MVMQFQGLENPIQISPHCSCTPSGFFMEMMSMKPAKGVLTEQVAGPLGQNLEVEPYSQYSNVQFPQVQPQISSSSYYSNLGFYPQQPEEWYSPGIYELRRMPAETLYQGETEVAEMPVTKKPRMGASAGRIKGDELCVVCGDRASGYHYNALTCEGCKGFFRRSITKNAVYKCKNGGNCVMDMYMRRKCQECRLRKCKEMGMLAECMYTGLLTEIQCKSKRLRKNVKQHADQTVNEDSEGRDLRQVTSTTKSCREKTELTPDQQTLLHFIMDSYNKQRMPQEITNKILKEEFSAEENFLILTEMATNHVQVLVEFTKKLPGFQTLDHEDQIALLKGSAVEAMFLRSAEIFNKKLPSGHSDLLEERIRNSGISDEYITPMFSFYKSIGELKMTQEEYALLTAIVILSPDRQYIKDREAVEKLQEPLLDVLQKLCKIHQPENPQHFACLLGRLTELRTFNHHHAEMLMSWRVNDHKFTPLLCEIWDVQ
Protocol: Binding affinity (IC50) was evaluated using scintillation proximity assay with radiolabeled ligand and biotinylated receptor. Because the scintillant is contained within the SPA bead, only radiolabel that is attached to the bead is detected. The receptor-ligand complex is bound to the bead through interaction between the biotinylated receptor and the streptavidin moiety located on the surface of the bead.

Row | Structure (SMILES) | pIC50 | pEC50
1 | Cc1cc(OCc2c(-c3c(Cl)c[n+]([O-])cc3Cl)noc2C(C)Cl)ccc1-c1ccc2c(C(=O)O)cn(C)c2c1 (centres undefined) [3-aryl isoxazole analog, 7b] | 7.35 | 
2 | Cc1cc(OCc2c(-c3c(Cl)ccc(=O)n3C)noc2C(C)Cl)ccc1-c1ccc2c(C(=O)O)cn(C)c2c1 (centres undefined) [3-aryl isoxazole analog, 7f] | 6.06 | 
3 | Cc1cc(OCc2c(-c3c(Cl)cn(C)c(=O)c3Cl)noc2C(C)Cl)ccc1-c1ccc2c(C(=O)O)cn(C)c2c1 (centres undefined) [3-aryl isoxazole analog, 7e] | 5.38 | 
4 | COc1ccc(Cl)c(-c2noc(C(C)Cl)c2COc2ccc(-c3ccc4c(C(=O)O)cn(C)c4c3)c(C)c2)n1 (centres undefined) [3-aryl isoxazole analog, 7g] | 6.12 | 5.70
5 | Cc1cc(OCc2c(-c3ccn(C)c(=O)c3Cl)noc2C(C)Cl)ccc1-c1ccc2c(C(=O)O)cn(C)c2c1 (centres undefined) [3-aryl isoxazole analog, 7d] | 5.13 | 5.15

The remaining compounds from weak to strong by pIC50, led by results:

Row | pIC50 | pEC50 | Structure (SMILES)
6 | 5.29 |  | Cc1cc(OCc2c(-c3[nH]c(=O)ccc3Cl)noc2C(C)Cl)ccc1-c1ccc2c(C(=O)O)cn(C)c2c1 (centres undefined) [3-aryl isoxazole analog, 7h]
7 | 5.96 |  | Cc1cc(OCc2c(-c3cc[nH]c(=O)c3Cl)noc2C(C)Cl)ccc1-c1ccc2c(C(=O)O)cn(C)c2c1 (centres undefined) [3-aryl isoxazole analog, 7c]
